Test [1] concerns the target T1, murine HDAC6 (Mus musculus, UniProt Q9Z2V5).
T1 construct: made in house; host or cells: 293T cells (transient transfection, anti-FLAG immunoprecipitation, FLAG peptide elution)
T1 sequence (Q9Z2V5 1-1149): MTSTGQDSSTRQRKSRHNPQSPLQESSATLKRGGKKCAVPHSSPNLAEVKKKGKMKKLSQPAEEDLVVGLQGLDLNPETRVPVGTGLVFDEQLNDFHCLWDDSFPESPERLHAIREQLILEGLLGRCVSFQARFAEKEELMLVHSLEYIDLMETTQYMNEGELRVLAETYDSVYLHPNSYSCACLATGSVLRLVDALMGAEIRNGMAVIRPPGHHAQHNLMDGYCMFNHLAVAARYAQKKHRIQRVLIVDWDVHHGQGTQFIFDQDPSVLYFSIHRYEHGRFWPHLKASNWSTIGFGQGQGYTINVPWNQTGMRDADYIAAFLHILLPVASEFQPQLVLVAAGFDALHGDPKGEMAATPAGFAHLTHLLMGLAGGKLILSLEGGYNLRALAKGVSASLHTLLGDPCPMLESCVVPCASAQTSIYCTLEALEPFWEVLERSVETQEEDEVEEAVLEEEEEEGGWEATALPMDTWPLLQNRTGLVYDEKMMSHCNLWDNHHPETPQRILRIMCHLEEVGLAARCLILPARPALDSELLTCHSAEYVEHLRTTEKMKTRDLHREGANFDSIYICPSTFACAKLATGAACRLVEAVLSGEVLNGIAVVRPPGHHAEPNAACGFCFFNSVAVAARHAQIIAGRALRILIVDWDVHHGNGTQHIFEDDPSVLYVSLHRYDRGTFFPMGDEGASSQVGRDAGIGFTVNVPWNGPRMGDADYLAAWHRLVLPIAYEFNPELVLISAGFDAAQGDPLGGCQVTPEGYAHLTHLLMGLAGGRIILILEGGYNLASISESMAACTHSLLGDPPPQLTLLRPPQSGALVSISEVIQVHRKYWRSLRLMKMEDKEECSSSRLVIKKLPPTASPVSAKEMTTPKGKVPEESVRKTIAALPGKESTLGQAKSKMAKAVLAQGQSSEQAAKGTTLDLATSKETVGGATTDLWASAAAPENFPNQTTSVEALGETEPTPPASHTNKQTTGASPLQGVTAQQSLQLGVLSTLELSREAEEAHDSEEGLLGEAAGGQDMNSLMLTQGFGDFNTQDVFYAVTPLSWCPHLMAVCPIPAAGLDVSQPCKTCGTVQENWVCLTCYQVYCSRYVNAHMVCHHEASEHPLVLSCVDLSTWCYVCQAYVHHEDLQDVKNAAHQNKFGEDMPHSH
The experiment in a line: HDAC-inhibiting activity, coumarin-labeled acetylated histone peptide assay. To be noted: murine HDAC6 from transfected 293T cells; 37° C., 30 minutes. The format is biochemical. The protocol:
(§1) In carrying out HDAC-inhibiting activity measurements, HDAC solutions were prepared in the following manner. In each 100-mm dish, there were sowed 1×10^7 293T cells and, after 24 hours, they were transfected with a vector (5 μg) expressing human HDAC1 or HDAC4 or murine HDAC6 using the LipofectAmine 2000 reagent (Invitrogen). The human HDAC1 expression vector used was pcDNA3-HD1 (Yang, W. M., Yao, Y. L., Sun, J. M., Davie, J. R. & Seto, E. (1997) J. Biol. Chem. 272, 28001-28007), the human HDAC4 expression vector used was pcDNA3-HD4 (Fischle, W., Emiliani, S., Hendzel, M. J., Nagase, T., Nomura, N., Voelter, W. & Verdin, E. (1999) J. Biol. Chem. 274, 11713-11720), and the murine HDAC6 expression vector used was pcDNA3-mHDA2/HDAC6 (Verdel, A. & Khochbin, S. (1999) J. Biol. Chem. 274, 2440-2445).
(§2) After 24 hours of incubation, cells were recovered, washed with PBS, suspended in lysis buffer (50 mM Tris-HCl (pH 7.5), 120 mM NaCl, 5 mM EDTA, 0.5% Nonidet P-40), and sonicated. The supernatant was collected by centrifugation and then deprived of nonspecific proteins using Protein A/G plus agarose beads (Santa Cruz Biotechnologies, Inc.). Thereafter, anti-FLAG M2 antibody (Sigma-Aldrich Inc.) was added, and the reaction was allowed to proceed at 4° C. for 2 hours.
(§3) To this were added agarose beads, the reaction was allowed to proceed at 4° C. for 3 hours, and the agarose beads were washed three times with lysis buffer and then once with HD buffer (20 mM Tris-HCl (pH 8.0), 150 mM NaCl, 10% glycerol). The protein bound to the agarose beads was recovered by 1 hour of incubation with FLAG peptide (40 μg) (Sigma-Aldrich Inc.) in HD buffer (200 μl) at 4° C., and the liquid recovered was used, as a reactant solution, in the HDAC-inhibiting activity measurement described below.
(§4) HDAC-inhibiting activity evaluation in each in vitro system was made as follows. Each test compound was dissolved in DMSO, a stock solution with a concentration of 10 mM was thus prepared and this was used as an inhibitor stock solution. The assay was carried out by incubating the HDAC solution and a coumarin-labeled acetylated histone peptide solution in the presence of the test compound at 37° C. for 30 minutes (reaction volume 20 μl). To the reaction mixture was added 30 μl of trypsin, and the aminomethylcoumarin released by the enzymatic reaction was assayed using a fluorescent plate reader. In a negative control assay, no inhibitor was added to the reaction system and the same procedure was carried out.

Test [2] concerns the target T2, human HDAC1 (Homo sapiens, UniProt Q13547).
T2 construct: made in house; host or cells: 293T cells (transient transfection, anti-FLAG immunoprecipitation, FLAG peptide elution)
The test is described as above. The following applies: human HDAC1 from transfected 293T cells; 37° C., 30 minutes. The format is biochemical. The protocol: as §1, §2, §3, §4

Test [3] deals with T3, human HDAC4 (Homo sapiens, UniProt P56524).
T3 construct: made in house; host or cells: 293T cells (transient transfection, anti-FLAG immunoprecipitation, FLAG peptide elution)
The test is described as above. Format: biochemical. The protocol: In carrying out HDAC-inhibiting activity measurements, HDAC solutions were prepared in the following manner. […] The human HDAC1 expression vector used was pcDNA3-HD1 (Yang, W. M., Yao, Y. L., Sun, […]. & Seto, E. (1997) J. Biol. Chem. 272, 28001-28007), the human HDAC4 expression vector used was pcDNA3-HD4 ([…]., Nagase, […]. Biol. Chem. 274, 11713-11720), and the murine HDAC6 expression vector used was pcDNA3-mHDA2/HDAC6 ([…]. Biol. Chem. 274, 2440-2445). After 24 hours of incubation, cells were recovered, washed with PBS, suspended in lysis buffer (50 mM Tris-HCl (pH 7.5), 120 mM NaCl, 5 mM EDTA, 0.5% Nonidet P-40), and sonicated. The supernatant was collected by centrifugation and then deprived of nonspecific proteins using Protein A/G plus agarose beads (Santa Cruz Biotechnologies, Inc.). Thereafter, anti-FLAG M2 antibody (Sigma-Aldrich Inc.) was added, and the reaction was allowed to proceed at 4° C. for 2 hours. To this were added agarose beads, the reaction was allowed to proceed at 4° C. for 3 hours, and the agarose beads were washed three times with lysis buffer and then once with HD buffer (20 mM Tris-HCl (pH 8.0), 150 mM NaCl, 10% glycerol). […] HDAC-inhibiting activity evaluation in each in vitro system was made as follows. Each test compound was dissolved in DMSO, a stock solution with a concentration of 10 mM was thus prepared and this was used as an inhibitor stock solution. The assay was carried out by incubating the HDAC solution and a coumarin-labeled acetylated histone peptide solution in the presence of the test compound at 37° C. for 30 minutes (reaction volume 20 μl). To the reaction mixture was added 30 μl of trypsin, and the aminomethylcoumarin released by the enzymatic reaction was assayed using a fluorescent plate reader. In a negative control assay, no inhibitor was added to the reaction system and the same procedure was carried out.

The subject of test [4] is human wild type p21 promoter. The experiment in a line: p21 promoter assay (luciferase) in MFLL-9 cells. To be noted: 20 hours, concentration giving 1000% luminescence relative to negative control (100%). The format is cell-based. The protocol:
As an HDAC-inhibiting activity in an […] system, the following measurement was carried out using the p21 promoter inducing activity as an index. MFLL-9 cells used in the experiment are cells stably retaining a fusion gene (Dr. B. Vogelstaein) from the human wild type p21 promoter and luciferase gene. They were cultured using phenol red-free DMEM supplemented with 10% FBS in a steam-saturated incubator at 37° C. in the presence of 5% carbon dioxide. These MFLL-9 cells were sowed onto a 96-well microplate at a cell density of 2×10^4 cells/well and, after 24 hours of cultivation in 99 μl, per well, of the medium mentioned above, each test compound solution was added, followed by 20 hours of incubation. […] In a negative control, the same procedure was carried out without adding any inhibitor to the reaction system.
Using Luciferase Assay Reagent (Promega), the intensity of the luminescence due to the product of the enzymatic reaction involving luciferase expressed within cells was measured.

Setting [5] is: human HDAC4 from transfected 293T cells, 37° C., 30 minutes, read-out: HDAC-inhibiting activity IC50 HDAC4.

Like-named read-outs stand apart in the source and are kept apart here. Non-standard residues stand in square brackets, D forms with d. Residues, ends and D or L forms follow the SMILES beside them. Ala(5-hexenyl) = C=CCCCCC[C@H](N)C(=O)O; Aib = CC(C)(N)C(=O)O

T3 sequence (P56524 whole entry): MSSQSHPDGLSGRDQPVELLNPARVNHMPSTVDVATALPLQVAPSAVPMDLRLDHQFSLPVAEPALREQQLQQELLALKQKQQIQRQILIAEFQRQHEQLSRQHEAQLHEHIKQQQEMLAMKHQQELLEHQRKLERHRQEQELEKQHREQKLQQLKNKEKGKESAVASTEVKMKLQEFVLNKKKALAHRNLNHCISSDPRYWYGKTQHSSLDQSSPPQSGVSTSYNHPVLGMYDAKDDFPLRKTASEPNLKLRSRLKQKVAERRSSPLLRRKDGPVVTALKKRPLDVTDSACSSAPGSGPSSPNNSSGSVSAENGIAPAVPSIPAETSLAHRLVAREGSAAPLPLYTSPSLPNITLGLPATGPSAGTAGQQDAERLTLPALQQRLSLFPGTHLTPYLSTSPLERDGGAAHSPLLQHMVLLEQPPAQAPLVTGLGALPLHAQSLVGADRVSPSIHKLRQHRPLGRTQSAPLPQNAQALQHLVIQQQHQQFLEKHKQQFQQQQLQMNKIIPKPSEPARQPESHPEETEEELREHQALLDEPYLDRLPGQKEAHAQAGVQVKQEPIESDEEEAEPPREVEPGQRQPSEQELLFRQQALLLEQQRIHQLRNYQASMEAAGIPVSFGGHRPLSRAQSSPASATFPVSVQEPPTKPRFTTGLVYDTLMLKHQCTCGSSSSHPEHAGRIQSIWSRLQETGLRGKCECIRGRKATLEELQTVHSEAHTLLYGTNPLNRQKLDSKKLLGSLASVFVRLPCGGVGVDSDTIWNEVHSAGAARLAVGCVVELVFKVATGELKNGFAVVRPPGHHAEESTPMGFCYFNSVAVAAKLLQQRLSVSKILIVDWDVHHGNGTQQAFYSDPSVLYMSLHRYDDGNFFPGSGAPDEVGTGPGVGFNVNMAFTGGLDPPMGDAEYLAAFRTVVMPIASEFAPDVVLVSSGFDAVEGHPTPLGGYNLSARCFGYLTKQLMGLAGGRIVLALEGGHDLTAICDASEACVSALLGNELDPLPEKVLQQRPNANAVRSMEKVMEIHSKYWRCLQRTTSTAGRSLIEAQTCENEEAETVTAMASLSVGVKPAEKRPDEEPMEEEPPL
T3 sequence (O15379 whole entry, further chain): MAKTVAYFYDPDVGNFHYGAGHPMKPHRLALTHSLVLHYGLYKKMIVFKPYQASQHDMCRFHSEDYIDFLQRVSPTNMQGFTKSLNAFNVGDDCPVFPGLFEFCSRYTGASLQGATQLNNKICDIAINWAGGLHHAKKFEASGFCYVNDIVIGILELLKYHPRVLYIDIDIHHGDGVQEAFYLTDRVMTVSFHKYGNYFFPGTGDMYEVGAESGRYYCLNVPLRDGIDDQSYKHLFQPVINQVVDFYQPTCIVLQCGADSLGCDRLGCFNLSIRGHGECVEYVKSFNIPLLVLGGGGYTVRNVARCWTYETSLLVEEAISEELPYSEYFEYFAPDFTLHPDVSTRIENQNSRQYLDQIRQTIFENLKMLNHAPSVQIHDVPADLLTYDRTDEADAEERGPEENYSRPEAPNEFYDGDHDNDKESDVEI
T2 sequence (Q13547 whole entry): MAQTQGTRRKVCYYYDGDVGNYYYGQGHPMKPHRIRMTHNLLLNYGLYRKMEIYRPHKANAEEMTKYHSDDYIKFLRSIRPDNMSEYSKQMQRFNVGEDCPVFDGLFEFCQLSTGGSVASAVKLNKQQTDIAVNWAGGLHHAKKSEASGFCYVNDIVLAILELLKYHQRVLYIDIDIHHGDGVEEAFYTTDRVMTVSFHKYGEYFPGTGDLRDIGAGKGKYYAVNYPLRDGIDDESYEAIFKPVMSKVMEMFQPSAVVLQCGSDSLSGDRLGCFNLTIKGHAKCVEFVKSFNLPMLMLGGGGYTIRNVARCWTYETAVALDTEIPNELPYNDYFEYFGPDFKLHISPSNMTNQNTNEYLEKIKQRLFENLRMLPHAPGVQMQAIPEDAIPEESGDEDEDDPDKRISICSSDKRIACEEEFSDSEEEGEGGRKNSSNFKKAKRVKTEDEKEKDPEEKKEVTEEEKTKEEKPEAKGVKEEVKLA

As for `CCOCC(=O)CCCCC[C@@H]1NC(=O)[C@H]2CCCN2C(=O)[C@H](Cc2ccccc2)NC(=O)C(C)(C)NC1=O` [Ky-10, cyclo(-L-Ae9(Emk)-Aib-L-Phe-D-Pro-)], the IC50 (commonly the point on the concentration scale where inhibition reaches its midpoint) in test [1] worked out at 8400 nM; in test [2] it was 21 nM; in test [3] (setting [5]), 31 nM. Moreover, in test [4], the “p21 promoter activity EC1000” value is 0.095 µM.

For `CC1(C)NC(=O)[C@H](CCCCCC(=O)CBr)NC(=O)[C@H]2CCCN2C(=O)[C@H](Cc2ccccc2)NC1=O` [Ky-12, cyclo(-L-Ae9(Bmk)-Aib-L-Phe-D-Pro-)], the IC50 came to 620 nM in test [1], 62 nM in test [2] and 60 nM in test [3] (setting [5]). Further, in test [4], the “p21 promoter activity EC1000” value is 0.34 µM.

On to `CSCC(=O)CCCCC[C@@H]1NC(=O)[C@H]2CCCN2C(=O)[C@H](Cc2ccccc2)NC(=O)C(C)(C)NC1=O` [Ky-13, cyclo(-L-Ae9(Mtmk)-Aib-L-Phe-D-Pro-)], for which the figures for the IC50 in test [1], in test [2] and in test [3] (setting [5]) were 40500 nM, 110 nM and 74 nM, respectively. Further, the “p21 promoter activity EC1000” value in test [4] came out at 0.13 µM.

`CN(C)CC(=O)CCCCC[C@@H]1NC(=O)[C@H]2CCCN2C(=O)[C@H](Cc2ccccc2)NC(=O)C(C)(C)NC1=O` [Ky-14, cyclo(-L-Ae9(Dmamk)-Aib-L-Phe-D-Pro-)]: the IC50 in test [1] was above 100000 nM; in test [2] it was 20000 nM; in test [3] (setting [5]), 17900 nM. Further, the “p21 promoter activity EC1000” value in test [4] worked out at 2.4 µM.

In the case of `CSCCCCC[C@@H]1NC(=O)[C@H]2CCCN2C(=O)[C@H](Cc2ccccc2)NC(=O)C(C)(C)NC1=O` [Ky-15, cyclo(-L-Am7(methyl)-Aib-L-Phe-D-Pro-)], the IC50 in test [1], in test [2] and in test [3] (setting [5]) was above 100000 nM throughout.

Consider `CC1(C)NC(=O)[C@H](CCCCCSCc2ccccn2)NC(=O)[C@H]2CCCN2C(=O)[C@H](Cc2ccccc2)NC1=O` [Ky-16, cyclo(-L-Am7(2-pyridylmethylthio ether)-Aib-L-Phe-D-Pro-)], for which the IC50 in test [1] came to 58 nM; in test [2] it was 23 nM; in test [3] (setting [5]), 11 nM. Also, the “p21 promoter activity EC1000” value in test [4] came to 0.20 µM.

On to `C=CCCCCC[C@@H]1NC(=O)[C@H]2CCCN2C(=O)[C@H](Cc2ccccc2)NC(=O)C(C)(C)NC1=O` [Ky-17, cyclo(-L-Ae9-Aib-L-Phe-D-Pro-)] (cyclo([Aib]F[dP][Ala(5-hexenyl)])), for which the half-maximal inhibitory concentration (IC50) in test [1], in test [2] and in test [3] was above 100000 nM each time. Further, the “p21 promoter activity EC1000” value in test [4] is above 250 µM.

For the compound `CC(=O)SCC(=O)CCCCC[C@@H]1NC(=O)[C@H]2CCCN2C(=O)[C@H](Cc2ccccc2)NC(=O)C(C)(C)NC1=O` [Ky-18, cyclo(-L-Ae9(Actmk)-Aib-L-Phe-D-Pro-)], the IC50 was determined as 4300 nM in test [1], 110 nM in test [2] and 190 nM in test [3] (setting [5]). Moreover, in test [4], the “p21 promoter activity EC1000” value was determined as 0.013 µM.

Turning to `CC1(C)NC(=O)C(CCCCC[S+]([O-])Cc2ccccn2)NC(=O)[C@H]2CCCN2C(=O)[C@H](Cc2ccccc2)NC1=O` (stereo partly drawn) [Ky-25, cyclo(-L-Am7(2-pyridylmethyl,sulfoxide)-Aib-L-Phe-D-Pro-)], the “p21 promoter activity EC1000” value in test [4] was 1.4 µM.

In the case of `CC1(C)NC(=O)[C@H](CCCSCC(=O)C(F)(F)F)NC(=O)[C@H]2CCCN2C(=O)[C@H](Cc2ccccc2)NC1=O` [Ky-27, cyclo(-L-Am5(1,1,1-trifluoroacetonyl)-Aib-L-Phe-D-Pro-)], the IC50 in test [1], in test [2] and in test [3] (setting [5]) was above 100000 nM in each case. In test [4], the “p21 promoter activity EC1000” value was above 250 µM.

Regarding `CC1(C)NC(=O)[C@H](CCCCCSCC(=O)C(F)(F)F)NC(=O)[C@H]2CCCN2C(=O)[C@H](Cc2ccccc2)NC1=O` [Ky-29, cyclo(-L-Am7(1,1,1-trifluoroacetonyl)-Aib-L-Phe-D-Pro-)], the concentration for half-maximal inhibition (IC50) in test [3] (setting [5]) amounted to 360 nM. Further, the “p21 promoter activity EC1000” value in test [4] turned out to be 0.028 µM.

For the compound `CC(=O)C[S+]([O-])CCCCCC1NC(=O)[C@H]2CCCN2C(=O)[C@H](Cc2ccccc2)NC(=O)C(C)(C)NC1=O` (stereo partly drawn) [Ky-86, cyclo(-L-Am7(acetonyl,sulfoxide)-Aib-L-Phe-D-Pro-)], in test [4], the “p21 promoter activity EC1000” value came to 16.8 µM.

Source of the values: patent publication US8158587B2, “Compound having histone deacetylase-inhibiting activity, and pharmaceutical composition comprising the compound as an active ingredient” (Kyushu Institute of Technology, priority 2006, dated 2012).
